From US12410152B2, “Oxazole and thioazole-type cullin ring ubiquitin ligase compounds and uses thereof” (Proxygen GmbH, priority 2019, dated 2025)

How the values were obtained:
[1] = test system: UBE2Mresc KBM7 cells; test: Cell viability assay, KBM7 UBE2M rescue (UBE2M cDNA re-introduced); assay type: cell-based, human; conditions: Table 1, data of FIG. 4; 3-day treatment; read-out: LC50 UBE2Mresc
Method: (§1) KBM7 cells with the specified genetic backgrounds were grown in IMDM supplemented with 10% FBS and 1% penicillin/streptomycin (pen/strep). AsPC1, HCT116, NCI-H446 and 293T cells were grown in DMEM 10% FBS and 1% pen/strep. MV4; 11, Jurkat and Be (2) C cells were grown in RPMI 10% FBS 1% pen/strep. KBM7, AsPC1 and HCT116 cells expressing Cas9 were generated using the plasmid Lenti_Cas9_Blasti (Addgene #52962). The lentiviral plasmid lentiGuide-Puro (Addgene #52963) was used to express sgRNAs against the genes UBE2M (in KBM7-Cas9, AsPC1-Cas9 and HCT116-Cas9 cells), UBE2G1 (in KBM7-Cas9 cells) and […] (in KBM7-Cas9 cells). The lentiviral plasmid lentiGuide-Puro-IRES-mCherry (modified from Addgene #52963) was used to express sgRNAs against CUL4A (in KBM7-Cas9 cells). The lentiviral plasmid pLenti-PGK-Hygro-DEST-UBE2M was generated by Gateway cloning (empty destination vector Addgene #19066), and used to generate UBE2M^resc KBM7 cells.
Indeed, >20 compounds were identified that fulfilled this criteria. […] The initial screening assay was conducted at two concentrations (10 μM and 500 nM). The dose ranging differential effect of these four hits was assessed/validated, comparing their activity in KBM7WT vs UBE2MMUT cells. […] A genetic rescue experiment, where UBE2M cDNA was re-introduced into the UBE2Mmut clone (UBE2Mresc), did (at least partically) reconstitute the initial sensitivity to the assessed compounds (FIG. 4, Table 1).
KBM7^WT, mutant KBM7 clones (UBE2M^mut, UBE2M^resc, UBE2G1^mut CUL4A^mut, CUL4B^mut), and 3-day doxycycline pretreated KBM7^iCas9_sgDDB1 cells were seeded at a cell density of 50,000 cells/mL in 96-well plates with DMSO or drug, in triplicates. Drugs used: IC020772.1/IC020772.1X, IC021313.2/IC021313.2X, T6938051/T6938051X or THZ531. Cells were treated for 3 days, after which cell viability was assessed according to manufacturer's protocol (CellTiter Glo, Promega G7570). Survival curves and EC50 values were calculated by best-fit analysis of the log 10 drug concentration to fold change of drug-treated cells over DMSO-treated cells. […]

[2] = test system: KBM7 UBE2G1mut cells; test: cells; assay type: cell-based
Method: as §1, with “cells. […]” for “cells.”
(§2) Finally, a total of structurally similar analogs was tested to unravel structure-activity relationship of the identified molecules. To that end, their anti-cancer activity was assayed in WT cells, as well as KBM7 cells deficient in genes identified in the genome-wide CRISPR screens (UBE2M, CUL4B, UBE2G1). Moreover, the compounds were also tested in AsPC1 pancreatic cancer cells (WT or UBE2Mmut), MV4; 11 and Jurkat leukemia cells, Be (2) C neuroblastoma cells, and NCI-H446 lung cancer cells (Table 3 at the end of this document)
(§3) KBM7^WT, mutant KBM7 clones (UBE2M^mut, UBE2M^resc, UBE2G1^mut CUL4A^mut, CUL4B^mut), and 3-day doxycycline pretreated KBM7^iCas9_sgDDB1 cells were seeded at a cell density of 50,000 cells/mL in 96-well plates with DMSO or drug, in triplicates. Drugs used: IC020772.1/IC020772.1X, IC021313.2/IC021313.2X, T6938051/T6938051X or THZ531. Cells were treated for 3 days, after which cell viability was assessed according to manufacturer's protocol (CellTiter Glo, Promega G7570). Survival curves and EC50 values were calculated by best-fit analysis of the log 10 drug concentration to fold change of drug-treated cells over DMSO-treated cells. All survival assays included technical triplicates per sample, per experiment.

[3] = test system: KBM7 CUL4Bmut cells; test: cells; assay type: cell-based
Method: as §1, with “cells. […]” for “cells.”
as §2, §3

Row | SMILES | CC50 [1] | CC50 [2] | CC50 [3]
1 | O=C(CSc1nnc2c(n1)[nH]c1ccccc12)Nc1ccc(Cl)cn1 [IC020772.1] | 0.75 µM | 2 µM | 7.53 µM
2 | Cc1ccc(C(=O)N2CSCC2C(=O)N=c2[nH]cc(C)s2)o1 (stereo not drawn) [Compound T6938051] | 1.15 µM | 3.47 µM | 110 µM
3 | O=C(CSc1nc2ccccc2[nH]1)Nc1ccc(Cl)cn1 [IC021313.2] | 1.94 µM | 4.34 µM | 15.7 µM
